# Tests used:
# [1] = target: T1, hSP-A (human SP-A, isolated from BAL of PAP patient) (Homo sapiens, UniProt Q8IWL1+Q8IWL2); assay: Microscale thermophoresis (MST) binding to hSP-A; conditions: for Kd: hSP-A, apparent KD at protein 9 nM, 25°C, read-out: KD (MST Measurements) ±Kd confidence
# T1 construct: Human PAP patient, BAL isolated; from tissue; host or cells: bronchoalveolar lavage fluid of a patient with pulmonary alveolar proteinosis
# Description: (§1) Human-isolated and recombinant proteins were labeled using the Monolith Protein Labeling Kit RED-NHS according to the manufacturer’s instructions. This kit reagent reacts with lysine residues present in the sequence of the protein, as the dye carries a reactive NHS-ester group. Briefly, as all the proteins were in a Tris buffer solution, the buffer solution was exchanged to a HEPES-based buffer with the A-Column provided in the kit. Then, 10 µM solution of protein was incubated with a threefold excess of dye in 100 µL for 30 min at room temperature protected from light. The labeled protein was separated from the free dye using the B-Column provided in the kit. The concentration of the labeled protein {c(M) = [A205 − (A650 × 0.19)]/[31 × MWprotein]) and the degree of labeling [DOL = A650/(195.000 M^−1cm^−1 × c(M)] were calculated according to the manufacturer’s instruction, measuring absorption at 205 nm (for the protein) and 650 nm (for the dye).
# (§2) Thermophoresis is the phenomenon of movement of particles along a temperature gradient. Solvated molecules move from higher to lower temperature. This movement or depletion of molecules from the heat is quantified by the Soret coefficient ST: Chot/Ccold = exp (−STΔT). The depletion of molecules depends on the interface between molecule and solvent. Therefore, thermophoresis monitors changes in size, charge, and solvation entropy of molecules. In this regard, the thermophoresis or movement of a protein is different from a protein-ligand complex ([35]). Microscale or miniaturized thermophoresis allows to monitor molecular interaction in only a few microliters. For this method, the fluorescently labeled protein is mixed with a decreasing concentration of a ligand in 16 glass capillaries. The initial fluorescence is measured (Fcold), then an infrared (IR) laser beam is switched on and focused on the center of the first capillary, where the temperature gradient is created from the center to the walls of the capillary. At the same time, a dichroic mirror allows fluorescence from the labeled protein to be monitored (Fhot). The rate of fluorescence change is related to the amount of protein-ligand complex form, which depends on the ligand concentration, due to changes in size, charge, or hydration shell of the protein-ligand complex. The dissociation constant KD is calculated from the binding curve derived by plotting the normalized fluorescence (FNorm) at a given time after the start of the thermophoresis against the respective ligand concentration ([33], [34], [36]).
# (§3) Samples were measured in a Monolith NT.115, using Premium Capillaries (MO-K025) and Monolith Protein labeling kit RED-NHS (MO-L011) all from NanoTemper Technologies (Munich, Germany). Solutions of a 3X concentrated MST buffer (15 mM Tris, 300 mM NaCl, 0.3% Tween 20, 15 mM CaCl2, pH 7.4), sugars (270 mM) or GAG (30 µM) solution, and protein solution (27 nM) were prepared separately. When a different concentration was used, a threefold concentration of the solution was prepared. Afterward, sugars and GAG solutions were diluted 1:2 with water in a series of 16 steps. For the measurement, 3 µL of each prepared component (3 µL MST buffer, 3 µL GAG solution, and 3 µL labeled protein) was mixed, centrifuged shortly to eliminate precipitates, and loaded into a glass capillary. The final concentrations of the sugars were thus between 90 –and 0.00275 mM or GAGs 10 and 0.000305 µM for GAGs, respectively. The 16 capillaries were loaded in the Monolith NT.115 and measurements were performed with a 40% LED power and medium MST power at 25°C.
# (§4) Every set of 16 capillaries was prepared in 3–6 replicates (technical replicates) and measured. The replicate measures of every capillary were plotted against concentration and outliers were excluded, using the MO Affinity Analysis 3 v01 software (NanoTemper Technologies, Munich, Germany). […]
# [2] = target: T2, rhSP-D (human recombinant SP-D) (Homo sapiens, UniProt P35247); assay: Microscale thermophoresis (MST) binding to rhSP-D; conditions: apparent KD at protein 9 nM, 25°C, read-out: KD (MST Measurements) ±Kd confidence
# T2 construct: host or cells: CHO cells
# T2 sequence (P35247 21-375): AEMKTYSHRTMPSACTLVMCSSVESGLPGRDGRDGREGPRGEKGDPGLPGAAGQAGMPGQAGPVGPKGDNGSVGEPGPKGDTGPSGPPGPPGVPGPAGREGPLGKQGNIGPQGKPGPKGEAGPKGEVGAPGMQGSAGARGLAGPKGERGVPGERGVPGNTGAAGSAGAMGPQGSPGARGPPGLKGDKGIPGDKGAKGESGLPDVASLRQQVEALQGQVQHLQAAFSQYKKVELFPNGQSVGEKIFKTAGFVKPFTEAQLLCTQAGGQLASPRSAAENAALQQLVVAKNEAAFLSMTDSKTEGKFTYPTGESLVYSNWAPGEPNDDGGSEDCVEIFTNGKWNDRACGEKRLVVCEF
# Description: as §1, §2, §3, §4
# [3] = system: human SP-A; parameters: method as in Haurum et al.; [41]; conditions: ref Haurum et al., [41], read-out: IC50 mean ±SD; cited from earlier work
# [4] = system: human SP-D; parameters: method as in Lu et al.; [19]; conditions: ref Lu et al., [19]; cited from earlier work
# [5] = system: recombinant human SP-D; parameters: method as in van Eijk et al.; [42]; conditions: ref van Eijk et al., [42], read-out: IC50 mean ± SE; cited from earlier work
# [6] = system: recombinant construct containing the N-terminal tagged fusion protein +neck and CRD of human SP-D; parameters: method as in Crouch et al. 2006 [47]; conditions: ref Crouch et al. 2006 [47], read-out: I50 mean ± SE; cited from earlier work
# [7] = system: human SP-A; parameters: method as in Haagsman et al.; [18]; conditions: ref Haagsman et al., [18]; cited from earlier work
# T1 sequence (Q8IWL2 21-248): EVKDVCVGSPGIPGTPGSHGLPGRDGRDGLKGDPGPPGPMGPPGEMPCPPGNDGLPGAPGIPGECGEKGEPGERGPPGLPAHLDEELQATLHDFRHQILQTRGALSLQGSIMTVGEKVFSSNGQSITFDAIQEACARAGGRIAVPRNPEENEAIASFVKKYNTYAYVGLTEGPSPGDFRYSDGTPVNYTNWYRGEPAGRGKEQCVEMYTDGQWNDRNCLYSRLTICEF
# T1 sequence (Q8IWL1 21-248): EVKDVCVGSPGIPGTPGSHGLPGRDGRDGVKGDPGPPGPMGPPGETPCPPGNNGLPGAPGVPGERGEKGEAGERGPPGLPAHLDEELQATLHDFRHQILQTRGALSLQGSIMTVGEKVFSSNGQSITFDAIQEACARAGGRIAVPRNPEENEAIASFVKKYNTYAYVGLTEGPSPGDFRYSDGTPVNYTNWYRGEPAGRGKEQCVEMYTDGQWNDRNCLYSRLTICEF
SMILES,Kd [1] [mM],Kd [2] [mM],IC50 [3] [mM],IC50 [4] [mM],IC50 [5] [mM],IC50 [6] [mM],"binding of hSP-A to sugar, calcium dependence ([1]; MST, 0-10 mM calcium, 0-20 mM EDTA (Fig. 1D, E))",Amount of SP-A bound [7] [%]
"OC[C@H]1O[C@H](O[C@H]2[C@H](O)[C@@H](O)[C@H](O)O[C@@H]2CO)[C@H](O)[C@@H](O)[C@@H]1O [Maltose, D(+)-maltose]",0.03,0.45,23 ± 5,5.1,4.1 ± 0.9,2.7 ± 0.4,,
"O=C[C@H](O)[C@@H](O)[C@H](O)[C@H](O)C(=O)O [GlcAc, D-glucuronic acid]",0.09,0.005,,,,,,
"O=C[C@H](O)[C@@H](O)[C@@H](O)[C@H](O)CO [Gal, D(+)-galactose]",1.94,0.82,,22,7.9 ± 3.8,10 ± 2,only seen in the presence of calcium,100
"OC[C@H]1OC(O)[C@@H](O)[C@@H](O)[C@@H]1O (stereo partly drawn) [Man, D(+)-mannose]",0.14,0.02,39 ± 3,7.5,2.9 ± 0.4,5.3 ± 0.5,,95 ± 10
"CC(=O)N[C@H]1[C@H]([C@H](O)[C@H](O)CO)OC(O)(C(=O)O)C[C@@H]1O (stereo partly drawn) [Neu5Ac, N-acetyl-neuraminic acid]",0.21,0.27,,,,,,
"OC[C@@H]1OC(O)[C@@H](O)[C@H](O)[C@H]1O (stereo partly drawn) [Glc, L(−)-glucose]",1.39,0.12,30 ± 1,9.6,4 ± 1,4.1 ± 0.9,,100
"CC(=O)N[C@H]1C(O)O[C@H](CO)[C@H](O)[C@@H]1O (stereo partly drawn) [GalNAc, N-acetyl-D-galactosamine]",7.27,0.39,,,,,,7
"CC(=O)N[C@@H]1C(O)O[C@H](CO)[C@@H](O)[C@@H]1O (stereo partly drawn) [ManNAc, N-acetyl-D-mannosamine monohydrate]",0.06,5.39,8 ± 1,,1.8 ± 0.3,2.1 ± 0.4,,
"C[C@H](O)[C@@H](O)[C@@H](O)[C@H](O)C=O [Fuc, L-fucose]",4.07,0.37,22 ± 1,6.5,4.4 ± 0.1,,,100
"CC(=O)N[C@@H]1[C@@H](O)[C@H](O)[C@@H](CO)O[C@@H]1O [GlcNAc, N-acetyl-D-glucosamine]",0.16,0.13,,28.5,13.5 ± 4.5,14 ± 2,,2

# Reference: publication PMC11380953, “Multivalent, calcium-independent binding of surfactant protein A and D to sulfated glycosaminoglycans of the alveolar epithelial glycocalyx” (American Journal of Physiology - Lung Cellular and …, 2024)
